Reference: patent US11028141B2, “Therapeutic for the prevention and/or treatment of weight gain and/or diabetes” (priority 2016, dated 2021)

What was measured:
NCI H716 cells = assay type: cell-based, human
Procedure: Identifying the microbial-derived compound responsible for GLP-1 stimulatory activity—To narrow down the bacterial component responsible for GLP-1 secretion in vitro, and for metabolic disease marker modulation in vivo, size fractionation studies were performed using Amicon centrifuge filtration tubes and exposure of the fractions on NCI H716 cells.
To further identify the component responsible for the activity, bacterial supernatants were analyzed using a Thermo Orbitrap Fusion mass spectrometer equipped with an Easy Nanospray HPLC system.

GLUTag cells = assay: GLP-1 secretion by GLUTag cells, measured by ELISA; assay type: cell-based, murine; conditions: cell-free supernatants or PMA positive control on GLUTag cells
Procedure: S. epidermidis has GLP-1 stimulatory activity in vitro in NCI H716 and GLUTag cells—In order to identify bacterial strains capable of eliciting GLP-1 secretion, 1500 microbial supernatants were screened using human NCI H716 cells. […] Following 16S rRNA sequencing, all 45 stimulatory strains came back as strains of S. epidermidis. Incubation of cell-free supernatants from two of the stimulatory strains with the highest activity, S. epidermidis JA1 and JA8 on NCI H716 cells stimulated a release of 3155±276 pM and 2518±141 pM GLP-1, respectively (FIG. 6A). GM17 media control and the PMA positive control had GLP-1 levels of 565±188 pM and 1767±120 pM GLP-1, respectively, indicating an approximate 2-fold increase in activity by JA1 over the positive PMA control. It was confirmed that JA1 and JA8 could stimulate GLP-1 secretion in a second model, murine GLUTag cells. S. epidermidis JA1 and JA8 led to the release of 1123±107 pM and 984±40 pM GLP-1, respectively (FIG. 6B). The GM17 media control and the PMA positive control had GLP-1 levels of 327±35 pM and 305±14 pM, respectively, indicating no real stimulation by PMA. […] None of the S. epidermidis bacterial cell-free supernatants had detectable toxicity on NCI H716 (FIG. 6C) and GLUTag (FIG. 6D) cells, as determined by a PrestoBlue resazurin-based analysis which measures aerobic respiration as an indicator of cell viability.

Molecule | release of GLP-1 (NCI H716 cells; cell-free supernatants or PMA positive control on NCI H716 cells) [pM] | release of GLP-1 (GLUTag cells) [pM] | GLP-1 stimulatory activity (GLP-1) (NCI H716 cells; 20 μM peptide, NCI H716 cells) [pM] | GLP-1 stimulatory activity of synthesized peptides (NCI H716 cells; varying concentrations, NCI H716 cells)
CCCCCCCCCCCCCC(=O)O[C@@H]1[C@@H](C)[C@@]2(O)[C@@H](C=C(CO)C[C@]3(O)C(=O)C(C)=C[C@@H]23)[C@@H]2C(C)(C)[C@]12OC(C)=O [PMA, reference compound] | 1767 ± 120 | 305 ± 14 |  | 
MAADIISTIGDLVKWIIDTVNKFTKK [24_25insT] |  |  | 1283.5 ± 798 | activity
